Consider seven compounds from patent US7932269B2, “Sulfonamides as orexin antagonists” (Hoffmann-La Roche Inc., priority 2008, dated 2011).

No end group written: not given here.

The target of one experiment is T1, human orexin-2 (hOX2) receptors (Homo sapiens, UniProt O43614).
T1 construct: expressed in transfected cells
T1 sequence (O43614 1-444): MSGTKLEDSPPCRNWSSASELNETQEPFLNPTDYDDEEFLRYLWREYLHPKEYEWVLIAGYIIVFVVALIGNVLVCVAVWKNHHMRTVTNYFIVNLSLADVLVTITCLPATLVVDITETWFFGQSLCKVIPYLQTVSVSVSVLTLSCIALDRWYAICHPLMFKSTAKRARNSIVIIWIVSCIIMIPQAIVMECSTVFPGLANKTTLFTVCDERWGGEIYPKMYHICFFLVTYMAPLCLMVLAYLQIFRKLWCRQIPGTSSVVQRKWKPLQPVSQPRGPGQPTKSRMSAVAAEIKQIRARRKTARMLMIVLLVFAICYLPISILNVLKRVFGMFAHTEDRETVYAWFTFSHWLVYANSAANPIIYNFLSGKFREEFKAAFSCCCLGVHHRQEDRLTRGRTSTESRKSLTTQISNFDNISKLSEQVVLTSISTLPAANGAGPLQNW
Description: Intracellular Ca2+ mobilization assay (FLIPR), orexin-A as agonist. It counts as cell-based. The conditions noted are these: CHO(dHFr-) cells stably expressing hOX2; antagonist applied 25 min before EC80 of orexin-A; Kb=IC50/(1+[A]/EC50); read-out: Kb (μM) OX2R (human). How it is done:
Intracellular Ca^2+ Mobilization Assay
The Chinese Hamster Ovary (dHFr-) mutant cell line stably expressing human orexin-1 (hOX1) or human orexin-2 (hOX2) receptors were maintained in Dulbecco's Modified Eagle Medium (1X) with GlutaMax™ 1, 4500 mg/L D-Glucose and Sodium Pyruvate (Catalog No. 31966-021, Invitrogen, Carlsbad, Calif.), 5% dialyzed fetal calf serum (Catalog No. 26400-044), 100 μg/ml penicillin and 100 μg/ml streptomycin. The cells were seeded at 5×10^4 cells/well in the poly-D-lysine treated, 96-well, black/clear-bottomed plates (Catalog No. BD356640, BD Biosciences, Palo Alto, Calif.). 24 h later, the cells were loaded for 1 hr at 37° C. with 4 μM Flou-4 acetoxymethyl ester (Catalog No. F-14202, Molecular Probes, Eugene, Oreg.) in FLIPR buffer (1×HBSS, 20 mM HEPES, 2.5 mM Probenecid). Hanks' Balanced Salt Solution (HBSS) (10X) (catalog No. 14065-049) and HEPES (1M) (catalog No. 15630-056) were purchased from Invitrogen, Carlsbad, Calif. Probenecid (250 mM) (catalog No. P8761) was from Sigma, Buchs, Switzerland. The cells were washed five times with FLIPR buffer to remove excess dye and intracellular calcium mobilization, [Ca^2+] were measured using a Fluorometric Imaging Plate Reader (FLIPR-96, Molecular Devices, Menlo Park, Calif.) as described previously (Malherbe et al., Mol. Pharmacol., 64, 823-832, 2003). Orexin A (catalog No.1455, Toris Cookson Ltd, Bristol, UK) was used as agonist. Orexin A ([…] stock solution in DMSO) was diluted in FLIPR buffer +0.1% BSA. The EC50 and EC80 values of orexin-A were measured daily from standard agonist concentration-response curves in CHO(dHFr-)-OX1R and —OX2R cell lines. All compounds were dissolved in 100% DMSO. Inhibition curves were determined by addition of 11 concentrations (0.0001-10 μM) of inhibitory compounds and using EC80 value of orexin-A as agonist (a concentration which gave 80% of max agonist response, determined daily). The antagonists were applied 25 min (incubation at 37° C.) before the application of the agonist. Responses were measured as peak increase in fluorescence minus basal, normalized to the maximal stimulatory effect induced by EC80 value of orexin-A or orexin-B. Inhibition curves were fitted according to the Hill equation: y=100/(1+(x/1C50)^nH), where nH=slope factor using Excel-fit 4 software (Microsoft). Kb values were calculated according to the following equation Kb=IC50/(1+[A]/EC50) where A is the concentration of agonist added which is very close to agonist EC80 value, and IC50 and EC50 values were derived from the antagonist inhibition and orexin-A or B agonist curves, respectively.
A general note: A change in cytosolic calcium serves as a functional read-out for many receptors and channels.
With `Cc1cccc(S(=O)(=O)N(CC(=O)N2CCCC2c2ccc(F)cc2)c2ccc(Cl)cc2)c1` (stereo not shown) [Example 24, N-(4-Chloro-phenyl)-N-{2-[2-(4-fluoro-phenyl)-pyrrolidin-1-yl]-2-oxo-ethyl}-3-methyl-benzenesulfonamide], the Kb is 0.0005 µM.

Turning to `COc1ccc(S(=O)(=O)N(CC(=O)N2CCCC2c2ccc(F)cc2)c2ccccc2OC)cc1` (stereo not shown) [Example 26, N-{2-[2-(4-Fluoro-phenyl)-pyrrolidin-1-yl]-2-oxo-ethyl}-4-methoxy-N-(2-methoxy-phenyl)-benzenesulfonamide], the Kb turned out to be 0.005 µM.

As to `COc1ccc(S(=O)(=O)N(CC(=O)N2CCCC2c2ccc(F)cc2)c2ccc(F)cc2)cc1` (stereo not shown) [Example 45, N-(4-Fluoro-phenyl)-N-{2-[2-(4-fluoro-phenyl)-pyrrolidin-1-yl]-2-oxo-ethyl}-4-methoxy-benzenesulfonamide], the Kb is 0.0079 µM.

For `O=C(CN(c1ccc(Cl)cc1)S(=O)(=O)c1ccccc1Cl)N1CCCC1c1ccc(F)cc1` (stereo not shown) [Example 7, 2-Chloro-N-(4-chloro-phenyl)-N-{2-[2-(4-fluoro-phenyl)-pyrrolidin-1-yl]-2-oxo-ethyl}-benzenesulfonamide], the Kb was 0.0007 µM.

`COc1ccc(S(=O)(=O)N(CC(=O)N2CCCC2c2ccccc2)c2cccc(F)c2)cc1` (stereo not shown) [Example 36, N-(3-Fluoro-phenyl)-4-methoxy-N-[2-oxo-2-(2-phenyl-pyrrolidin-1-yl)-ethyl]-benzenesulfonamide]: the Kb was 0.0077 µM.

Turning to `COc1ccc(S(=O)(=O)N(CC(=O)N2CCCC2c2ccc(F)cc2)c2ccc(Cl)cc2)cc1` (stereo not shown) [Example 22, N-(4-Chloro-phenyl)-N-{2-[2-(4-fluoro-phenyl)-pyrrolidin-1-yl]-2-oxo-ethyl}-4-methoxy-benzenesulfonamide], the Kb was determined as 0.0017 µM.

The next experiment deals with rat.
Assay: not given
The conditions noted are these: icv administration; cited from earlier work.
Turning to “OX-A: orexin-A/hypocretin1, 33 amino acid hypothalamic neuropeptide derived from prepro-orexin (QPLPDCCRQKTCSCRLYELLHGAGNHAAGILTL; ends and bridges not checked; cysteine pairing not given here; UniProt O43612 34-66, looked up)”, the “reduction of total REM sleep” value was 84%.

For orientation: Kb means the affinity of an antagonist, worked out from how it opposes an agonist.
